Conditions: Liquid; for mass density: Vibrating tube method; for vapor or sublimation pressure: Closed cell (Static) method

FC(F)=C(F)C(F)(F)F [hexafluoropropene]
Conditions | mass density [kg/m3]
323.37 K, 3190.6 kPa | 1208.65
323.37 K, 3233.2 kPa | 1209.26
323.37 K, 3274 kPa | 1209.98
323.37 K, 3319.3 kPa | 1210.67
323.37 K, 3363.9 kPa | 1211.37
323.37 K, 3409 kPa | 1212.2
323.37 K, 3453.1 kPa | 1212.75
323.37 K, 3494.3 kPa | 1213.56
323.37 K, 3536.1 kPa | 1214.13
323.37 K, 3576.1 kPa | 1214.83
323.37 K, 3614.3 kPa | 1215.37
323.37 K, 3655.5 kPa | 1215.99
323.37 K, 3696.8 kPa | 1216.59
323.37 K, 3734.8 kPa | 1217.22
323.37 K, 3774.4 kPa | 1217.9
323.37 K, 3814.2 kPa | 1218.51
323.37 K, 3853.1 kPa | 1219.11
323.37 K, 3890.4 kPa | 1219.71
323.37 K, 3929.4 kPa | 1220.24
323.37 K, 3968.3 kPa | 1220.84
323.37 K, 4008.7 kPa | 1221.41
323.37 K, 4049.2 kPa | 1222.01
323.37 K, 4086.5 kPa | 1222.57
323.37 K, 4125.9 kPa | 1223.19
323.37 K, 4203.9 kPa | 1224.27
323.37 K, 4242.8 kPa | 1224.81
323.37 K, 4283.2 kPa | 1225.52
323.37 K, 4323.7 kPa | 1226
323.37 K, 4365 kPa | 1226.67
323.37 K, 4405.1 kPa | 1227.17
323.37 K, 4444.7 kPa | 1227.66
323.37 K, 4485 kPa | 1228.31
323.37 K, 4510.8 kPa | 1228.65
323.37 K, 4561.5 kPa | 1229.42
323.37 K, 4618.8 kPa | 1230.22
323.37 K, 4671.5 kPa | 1230.85
323.37 K, 4727.5 kPa | 1231.69
323.37 K, 4782 kPa | 1232.28
323.37 K, 4834 kPa | 1233.09
323.37 K, 4887.1 kPa | 1233.93
323.37 K, 4938.4 kPa | 1234.66
323.37 K, 4991 kPa | 1235.13
323.37 K, 5040.4 kPa | 1235.89
323.37 K, 5097.9 kPa | 1236.56
323.37 K, 5155.7 kPa | 1237.37
323.37 K, 5211.3 kPa | 1238.02
323.37 K, 5267.7 kPa | 1238.8
323.37 K, 5326.8 kPa | 1239.64
323.37 K, 5386 kPa | 1240.28
323.37 K, 5440.9 kPa | 1241.12
323.37 K, 5498.8 kPa | 1241.79
323.37 K, 5518.2 kPa | 1242.1
323.37 K, 5575.5 kPa | 1242.7
323.37 K, 5631.7 kPa | 1243.39
323.37 K, 5693 kPa | 1244.16
323.37 K, 5751.8 kPa | 1244.98
323.37 K, 5808.1 kPa | 1245.67
323.37 K, 5864.8 kPa | 1246.37
323.37 K, 5921.9 kPa | 1247.09
323.37 K, 5977.9 kPa | 1247.78
323.37 K, 6035 kPa | 1248.49
323.37 K, 6091.4 kPa | 1249
323.37 K, 6150.7 kPa | 1249.77
323.37 K, 6208.1 kPa | 1250.43
323.37 K, 6265.4 kPa | 1251.23
323.37 K, 6323.2 kPa | 1251.69
323.37 K, 6380.6 kPa | 1252.41
323.37 K, 6438.3 kPa | 1253.13
323.37 K, 6494.6 kPa | 1253.91
323.37 K, 6551.8 kPa | 1254.4
323.37 K, 6606.9 kPa | 1255.07
323.37 K, 6663.3 kPa | 1255.73
323.37 K, 6721.4 kPa | 1256.27
323.37 K, 6837.9 kPa | 1257.77
323.37 K, 6894.2 kPa | 1258.24
323.37 K, 6952.1 kPa | 1259
323.37 K, 7008.2 kPa | 1259.55
323.37 K, 7067.2 kPa | 1260.31
323.37 K, 7126.4 kPa | 1260.79
323.37 K, 7183.6 kPa | 1261.47
323.37 K, 7241.8 kPa | 1262.13
323.37 K, 7299.5 kPa | 1262.75
323.37 K, 7358.7 kPa | 1263.39
323.37 K, 7415.2 kPa | 1263.98
323.37 K, 7474.7 kPa | 1264.58
323.37 K, 7531.4 kPa | 1265.19
323.37 K, 7588.8 kPa | 1265.89
323.37 K, 7648.3 kPa | 1266.42
323.37 K, 7707.1 kPa | 1267.12
323.37 K, 7764.7 kPa | 1267.63
323.37 K, 7823.9 kPa | 1268.27
323.37 K, 7882.7 kPa | 1268.85
323.37 K, 7940.4 kPa | 1269.67
323.37 K, 7995.5 kPa | 1270.08
323.37 K, 8048 kPa | 1270.66
323.37 K, 8125.8 kPa | 1271.24
323.37 K, 8203.2 kPa | 1272.24
323.37 K, 8277.9 kPa | 1272.98
323.37 K, 8354.3 kPa | 1273.75
323.37 K, 8407.9 kPa | 1274.11
323.37 K, 8486.2 kPa | 1275.02
323.37 K, 8565.3 kPa | 1275.71
323.37 K, 8644.1 kPa | 1276.5
323.37 K, 8721.2 kPa | 1277.38
323.37 K, 8795.7 kPa | 1278.02
323.37 K, 8871.5 kPa | 1278.77
323.37 K, 8923.6 kPa | 1279.19
323.37 K, 9000 kPa | 1279.98
323.37 K, 9075.8 kPa | 1280.67
323.37 K, 9128 kPa | 1281.22
323.37 K, 9181 kPa | 1281.6
323.37 K, 9257 kPa | 1282.4
323.37 K, 9330.9 kPa | 1283.02
323.37 K, 9404.8 kPa | 1283.76
323.37 K, 9479.6 kPa | 1284.46
323.37 K, 9533 kPa | 1284.99
323.37 K, 9609.3 kPa | 1285.65
323.37 K, 9682.9 kPa | 1286.27
323.37 K, 9757.3 kPa | 1287.03
323.37 K, 9833.2 kPa | 1287.72
323.37 K, 9909.3 kPa | 1288.32
323.37 K, 9986.3 kPa | 1289.02
343.18 K, 2257.1 kPa | 1022.11
343.18 K, 2260.4 kPa | 1022.55
343.18 K, 2263.3 kPa | 1022.75
343.18 K, 2269.6 kPa | 1023.31
343.18 K, 2279.2 kPa | 1024.07
343.18 K, 2287.2 kPa | 1024.5
343.18 K, 2297 kPa | 1025.46
343.18 K, 2306 kPa | 1025.93
343.18 K, 2314 kPa | 1026.5

Conditions | vapor or sublimation pressure [kPa]
328.21 K | 1595.1
333.21 K | 1791.4
338.18 K | 2007.9
